Measurements as given in ChEMBL document CHEMBL4382231, “Chemical preparation, biological evaluation and 3D-QSAR of ethoxysulfuron derivatives as novel antifungal agents targeting acetohydroxyacid synthase” (Eur J Med Chem, 2019).

Columns and labels:
[1] = Inhibition of Candida albicans AHAS catalytic subunit using pyruvate as substrate measured after 30 mins by colorimetric method
Candida albicans [2] = assay: Antifungal activity against Candida albicans SC5314 cultured in RPMI 1640 media after 24 hrs by broth microdilution method; type: functional; conditions: SC5314, 24 h
Candida albicans [3] = assay: Antifungal activity against Candida albicans SC5314 cultured in YNB media after 24 hrs by broth microdilution method; type: functional; conditions: SC5314, 24 h

SMILES	Ki [1] [nM]	pKi [1]	MIC (Candida albicans [2]) [µg/mL]	MIC (Candida albicans [3]) [µg/mL]
COC(=O)c1ccccc1OS(=O)(=O)[N-]C(=O)Nc1nc(I)cc(OC)n1.[Na+]	66	7.18	> 100	> 100
CCOC(=O)c1ccccc1OS(=O)(=O)[N-]C(=O)Nc1nc(C)cc(OC)n1.[Na+]	7.1	8.16	25	10
COC(=O)c1ccccc1S(=O)(=O)NC(=O)Nc1nccc(C)n1 [MONOSULFURON ESTER]	16800			
CCCOC(=O)c1ccccc1OS(=O)(=O)[N-]C(=O)Nc1nc(C)cc(OC)n1.[Na+]	1490		> 100	> 100
CCOC(=O)c1ccc(OS(=O)(=O)[N-]C(=O)Nc2nc(Cl)cc(OC)n2)cc1.[Na+]	15400	4.81	> 100	> 100
Cc1cc(C)nc(NC(=O)[N-]S(=O)(=O)Oc2ccccc2OCCCl)n1.[Na+]	822	6.08	> 100	> 100
CCOC(=O)c1ccccc1OS(=O)(=O)[N-]C(=O)Nc1nc(Cl)cc(OC)n1.[Na+]	7.5	8.12	> 100	40
CCCOC(=O)c1ccccc1OS(=O)(=O)[N-]C(=O)Nc1nc(I)cc(OC)n1.[Na+]	862	6.06	> 100	> 100
Cc1cc(C)nc(NC(=O)[N-]S(=O)(=O)Oc2ccccc2C(=O)OC(C)C)n1.[Na+]	9840	5	> 100	> 100
CCCOC(=O)c1ccccc1OS(=O)(=O)[N-]C(=O)Nc1nc(Br)cc(OC)n1.[Na+]	758	6.16	> 100	> 100
CCOC(=O)c1cccc(OS(=O)(=O)[N-]C(=O)Nc2nc(C)cc(OC)n2)c1.[Na+]	1640	5.78	> 100	> 100
COc1cc(Cl)nc(NC(=O)[N-]S(=O)(=O)Oc2ccccc2OCCCl)n1.[Na+]	87	7.06	> 100	> 100
COc1cc(Cl)nc(NC(=O)[N-]S(=O)(=O)Oc2ccccc2C(=O)Oc2ccccc2)n1.[Na+]	25400	4.58	> 100	> 100
Cc1cc(Cl)nc(NC(=O)[N-]S(=O)(=O)Oc2ccc([N+](=O)[O-])cc2)n1.[Na+]	> 50000		> 100	> 100
CCOC(=O)c1ccccc1OS(=O)(=O)[N-]C(=O)Nc1nc(C)cc(Cl)n1.[Na+]	37.1	7.43	> 100	> 100
COc1cc(I)nc(NC(=O)[N-]S(=O)(=O)Oc2ccccc2[N+](=O)[O-])n1.[Na+]	523	6.28	> 100	40
COc1cc(I)nc(NC(=O)[N-]S(=O)(=O)Oc2ccccc2OCCCl)n1.[Na+]	68	7.16	100	10
COc1cc(C)nc(NC(=O)[N-]S(=O)(=O)Oc2ccccc2OCCI)n1.[Na+]	91	7.04	> 100	10
COc1cc(OC)nc(NC(=O)[N-]S(=O)(=O)Oc2ccccc2C(=O)OCC(F)(F)F)n1.[Na+]	78	7.11	> 100	10
Cc1cc(Cl)nc(NC(=O)[N-]S(=O)(=O)Oc2ccccc2[N+](=O)[O-])n1.[Na+]	103	6.99	> 100	40
COc1cc(I)nc(NC(=O)[N-]S(=O)(=O)Oc2ccccc2OCCI)n1.[Na+]	637	6.18	> 100	20
COc1cc(C)nc(NC(=O)[N-]S(=O)(=O)Oc2ccccc2OCCCl)n1.[Na+]	78	7.1	25	10
